# Results as given in ChEMBL document CHEMBL1201862, “PubChem BioAssay data set” (2004).
# pIC50: −log10 of the molar value. Active and inactive are the calls of the source.
# Legend:
# [1] = target: Cytochrome P450 2C19 (Homo sapiens, UniProt P33261); experiment: Cytochrome panel assay with activity outcomes. Panel member name: p450-cyp2c19 Compounds with AC50 equal or less than 10 uM are considered active; format: functional; settings: read-out: AC50
# [2] = inhibitors of intracellular T. cruzi replication, confirmation, NIH3T3 host cells, beta-gal luminescence (AID 2044); format: functional, cell-based;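 also: intracellular parasites grown in NIH/3T3 mouse fibroblasts as host cells; luminescent beta-galactosidase reporter signal from transgenic T. cruzi replicating inside host cells; inhibitors lower the luminescence signal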
# [3] = target: T1, C-C chemokine receptor type 6 (Homo sapiens, UniProt P51684); experiment: CCR6 receptor antagonists, dose response, cell-based, luminescent beta-arrestin readout (AID 504728); format: functional
# T1 sequence (P51684 whole entry): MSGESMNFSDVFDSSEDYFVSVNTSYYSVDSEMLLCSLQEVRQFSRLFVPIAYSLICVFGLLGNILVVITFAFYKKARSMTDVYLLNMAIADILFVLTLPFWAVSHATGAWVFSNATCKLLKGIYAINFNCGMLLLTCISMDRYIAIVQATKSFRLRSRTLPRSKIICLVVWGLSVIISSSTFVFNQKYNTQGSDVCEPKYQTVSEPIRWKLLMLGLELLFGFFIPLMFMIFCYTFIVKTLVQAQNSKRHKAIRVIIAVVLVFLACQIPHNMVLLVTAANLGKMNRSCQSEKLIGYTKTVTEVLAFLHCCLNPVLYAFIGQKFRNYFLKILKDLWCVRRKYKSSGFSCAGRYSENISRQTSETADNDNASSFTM
# [4] = target: T2, Kappa-type opioid receptor (Homo sapiens, UniProt P41145); format: functional
# T2 sequence (P41145 whole entry): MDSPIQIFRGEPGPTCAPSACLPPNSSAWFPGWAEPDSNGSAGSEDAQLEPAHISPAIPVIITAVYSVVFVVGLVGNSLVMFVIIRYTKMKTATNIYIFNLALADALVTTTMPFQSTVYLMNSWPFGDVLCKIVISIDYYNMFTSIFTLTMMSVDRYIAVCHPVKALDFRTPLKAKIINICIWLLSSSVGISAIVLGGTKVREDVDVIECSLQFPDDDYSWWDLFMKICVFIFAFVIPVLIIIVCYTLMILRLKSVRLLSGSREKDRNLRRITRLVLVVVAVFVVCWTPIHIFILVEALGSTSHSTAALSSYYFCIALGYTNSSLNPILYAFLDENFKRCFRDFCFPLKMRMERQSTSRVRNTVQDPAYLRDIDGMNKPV
# [5] = target: T2, Kappa-type opioid receptor; format: functional; remark: listed apart in the source
# [6] = cytotoxicity toward NIH3T3 fibroblasts, dose response, counter-screen, cell-based, ATP luminescence, mouse fibroblasts (AID 2010); format: functional;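 also: cells exposed to compound for about 90 hours before reading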
# [7] = target: Cytochrome P450 2C9 (Homo sapiens, UniProt P11712)
# Cytochrome P450 2C9, sequence (P11712 whole entry): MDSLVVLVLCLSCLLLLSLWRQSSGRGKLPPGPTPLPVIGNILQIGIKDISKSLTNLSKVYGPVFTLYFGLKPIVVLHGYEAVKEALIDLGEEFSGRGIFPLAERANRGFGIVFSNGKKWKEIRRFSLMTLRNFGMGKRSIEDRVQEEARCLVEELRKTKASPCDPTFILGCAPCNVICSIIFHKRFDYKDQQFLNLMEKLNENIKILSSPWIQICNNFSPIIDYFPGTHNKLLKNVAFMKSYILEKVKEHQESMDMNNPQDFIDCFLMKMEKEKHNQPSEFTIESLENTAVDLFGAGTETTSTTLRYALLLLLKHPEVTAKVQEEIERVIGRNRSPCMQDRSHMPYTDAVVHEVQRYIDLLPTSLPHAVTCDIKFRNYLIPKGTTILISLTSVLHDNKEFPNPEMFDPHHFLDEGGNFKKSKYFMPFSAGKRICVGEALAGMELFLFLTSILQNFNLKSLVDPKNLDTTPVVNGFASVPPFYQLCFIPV
# [8] = target: T3, Beta-galactosidase (Escherichia coli, UniProt Q8VNN2); experiment: beta-galactosidase enzyme inhibitors and activators, dose response, artefact control for CCR6 antagonist project, biochemical, E. coli enzyme, set 3 (AID 504712); format: functional
# T3 sequence (Q8VNN2 whole entry): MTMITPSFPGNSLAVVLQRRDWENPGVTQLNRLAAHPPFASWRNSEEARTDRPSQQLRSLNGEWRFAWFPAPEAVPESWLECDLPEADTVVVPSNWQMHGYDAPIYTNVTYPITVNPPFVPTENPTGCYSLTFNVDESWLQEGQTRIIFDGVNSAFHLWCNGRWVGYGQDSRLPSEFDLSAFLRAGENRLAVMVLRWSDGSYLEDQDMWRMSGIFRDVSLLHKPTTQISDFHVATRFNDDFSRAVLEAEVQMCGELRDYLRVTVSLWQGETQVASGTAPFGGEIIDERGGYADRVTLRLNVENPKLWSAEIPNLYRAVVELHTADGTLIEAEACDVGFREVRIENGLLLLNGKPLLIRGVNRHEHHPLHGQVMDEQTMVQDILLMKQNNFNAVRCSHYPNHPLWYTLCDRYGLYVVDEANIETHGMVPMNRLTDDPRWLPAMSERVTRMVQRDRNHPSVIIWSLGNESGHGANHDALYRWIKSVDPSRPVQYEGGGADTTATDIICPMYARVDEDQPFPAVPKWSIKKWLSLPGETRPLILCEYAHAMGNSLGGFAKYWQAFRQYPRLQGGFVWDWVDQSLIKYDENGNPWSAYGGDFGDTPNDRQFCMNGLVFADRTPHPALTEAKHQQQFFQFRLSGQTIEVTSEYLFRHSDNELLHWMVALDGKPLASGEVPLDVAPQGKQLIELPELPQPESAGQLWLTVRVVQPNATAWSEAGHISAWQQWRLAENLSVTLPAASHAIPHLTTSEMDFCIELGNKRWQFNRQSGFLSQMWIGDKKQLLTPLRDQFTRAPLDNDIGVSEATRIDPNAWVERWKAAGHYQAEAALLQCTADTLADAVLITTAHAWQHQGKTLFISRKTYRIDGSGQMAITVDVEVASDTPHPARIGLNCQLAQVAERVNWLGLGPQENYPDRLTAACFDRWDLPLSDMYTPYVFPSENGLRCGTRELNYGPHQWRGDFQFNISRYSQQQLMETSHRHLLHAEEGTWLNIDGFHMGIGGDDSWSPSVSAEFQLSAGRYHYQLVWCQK
# [9] = target: T4, Delta-type opioid receptor (Homo sapiens, UniProt P41143); experiment: HTS Image-Based Screen for Antagonists of the DOR Receptor. [Related pubchem assays (depositor defined):AID1777, AID1785, AID1786, AID2133]; format: functional
# T4 sequence (P41143 whole entry): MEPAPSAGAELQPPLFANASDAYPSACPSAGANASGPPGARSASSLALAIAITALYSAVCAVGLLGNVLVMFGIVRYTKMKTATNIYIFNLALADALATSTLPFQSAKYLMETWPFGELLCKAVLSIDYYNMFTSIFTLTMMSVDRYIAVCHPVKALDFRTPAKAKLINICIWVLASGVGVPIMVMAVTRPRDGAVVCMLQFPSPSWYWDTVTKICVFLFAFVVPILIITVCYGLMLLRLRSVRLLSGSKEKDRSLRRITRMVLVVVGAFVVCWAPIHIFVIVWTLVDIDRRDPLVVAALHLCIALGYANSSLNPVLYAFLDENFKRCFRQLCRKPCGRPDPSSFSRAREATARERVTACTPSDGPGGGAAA
# [10] = target: Mu-type opioid receptor (Homo sapiens, UniProt P35372); experiment: HTS Image-Based Screen for Agonists of the MOR Receptor. [Related pubchem assays (depositor defined):AID1777, AID1785, AID1786, AID2133]; format: functional;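 also: imaging of beta-arrestin GFP recruitment into spots after receptor activation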
# Mu-type opioid receptor, sequence (P35372 whole entry): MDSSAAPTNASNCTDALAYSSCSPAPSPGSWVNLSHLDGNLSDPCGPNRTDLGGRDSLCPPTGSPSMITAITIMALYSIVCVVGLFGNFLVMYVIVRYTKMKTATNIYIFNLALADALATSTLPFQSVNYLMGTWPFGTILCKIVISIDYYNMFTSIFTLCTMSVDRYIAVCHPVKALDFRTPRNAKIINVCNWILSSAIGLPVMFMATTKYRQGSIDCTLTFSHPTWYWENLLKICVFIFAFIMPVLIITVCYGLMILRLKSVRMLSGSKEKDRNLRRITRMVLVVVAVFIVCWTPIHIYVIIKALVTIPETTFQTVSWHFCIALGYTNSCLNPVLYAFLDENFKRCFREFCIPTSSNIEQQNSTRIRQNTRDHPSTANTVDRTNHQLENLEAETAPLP
# [11] = target: T3, Beta-galactosidase; format: functional
# [12] = target: T4, Delta-type opioid receptor; experiment: HTS Image-Based Screen for Agonists of the DOR Receptor. [Related pubchem assays (depositor defined):AID1777, AID1786, AID2133]; format: functional
# [13] = target: T5, Streptokinase A (Streptococcus pyogenes serotype M1, UniProt P10520); experiment: S. pyogenes streptokinase expression inhibitors, potency, dose response, plasminogen activation absorbance, OD405 (AID 1914); format: functional, Streptococcus pyogenes M1 GAS;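 also: secreted streptokinase activity via plasminogen activation per viability signal from cell pellet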
# T5 sequence (P10520 whole entry): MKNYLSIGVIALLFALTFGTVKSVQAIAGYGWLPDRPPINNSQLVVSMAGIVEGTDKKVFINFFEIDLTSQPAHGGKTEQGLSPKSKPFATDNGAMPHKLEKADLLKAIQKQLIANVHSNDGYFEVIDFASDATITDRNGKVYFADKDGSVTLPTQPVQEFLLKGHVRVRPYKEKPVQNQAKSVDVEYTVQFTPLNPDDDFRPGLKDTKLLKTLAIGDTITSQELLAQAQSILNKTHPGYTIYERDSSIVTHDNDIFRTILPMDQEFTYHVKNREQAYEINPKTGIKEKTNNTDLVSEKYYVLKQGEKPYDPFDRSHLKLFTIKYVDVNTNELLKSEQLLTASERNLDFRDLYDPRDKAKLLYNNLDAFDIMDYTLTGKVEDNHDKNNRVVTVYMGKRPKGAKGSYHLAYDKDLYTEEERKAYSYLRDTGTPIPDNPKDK
# [14] = target: T6, Ubiquitin-conjugating enzyme E2 N (Homo sapiens, UniProt P61088); format: functional
# T6 sequence (P61088 whole entry): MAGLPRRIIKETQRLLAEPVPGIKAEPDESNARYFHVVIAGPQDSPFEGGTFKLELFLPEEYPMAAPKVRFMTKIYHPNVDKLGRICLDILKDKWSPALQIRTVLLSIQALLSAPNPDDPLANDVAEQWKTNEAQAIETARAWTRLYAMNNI
# [15] = target: T6, Ubiquitin-conjugating enzyme E2 N; format: functional; remark: listed apart in the source
# [16] = target: Neurotensin receptor type 1 (Homo sapiens, UniProt P30989); format: functional;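 also: Image-based confirmatory dose-response assay measuring agonist activity at NTR1; NTR1-expressing U2OS osteosarcoma cells imaged for beta-arrestin GFP spot formation; agonist potency where compounds increase beta-arrestin recruitment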
# Neurotensin receptor type 1, sequence (P30989 whole entry): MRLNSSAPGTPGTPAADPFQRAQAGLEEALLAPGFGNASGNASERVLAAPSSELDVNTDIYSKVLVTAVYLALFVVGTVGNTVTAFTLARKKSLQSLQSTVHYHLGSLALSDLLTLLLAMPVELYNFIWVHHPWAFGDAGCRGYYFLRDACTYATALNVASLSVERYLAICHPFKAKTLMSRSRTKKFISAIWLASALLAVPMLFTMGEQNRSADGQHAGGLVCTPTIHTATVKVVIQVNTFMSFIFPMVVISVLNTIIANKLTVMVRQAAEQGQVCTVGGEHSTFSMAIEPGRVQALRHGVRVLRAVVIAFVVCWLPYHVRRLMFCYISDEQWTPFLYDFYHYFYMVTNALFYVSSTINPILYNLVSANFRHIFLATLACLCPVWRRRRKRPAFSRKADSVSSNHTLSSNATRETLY
# [17] = system: Streptococcus; experiment: Group A Streptococcus viability loss, dose response, counter-screen for streptokinase expression inhibitor project, luminescence, BacTiterGlo (AID 1915); format: functional, organism-based;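 also: potency for reduction of bacterial viability or growth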
# [18] = target: T7, Bcl-2-related protein A1 (Mus musculus, UniProt Q07440); format: functional;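 also: confirmatory dose–response counterscreen on Bfl-1, used to check hits from a UBC13 polyubiquitin inhibitor campaign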
# T7 sequence (Q07440 whole entry): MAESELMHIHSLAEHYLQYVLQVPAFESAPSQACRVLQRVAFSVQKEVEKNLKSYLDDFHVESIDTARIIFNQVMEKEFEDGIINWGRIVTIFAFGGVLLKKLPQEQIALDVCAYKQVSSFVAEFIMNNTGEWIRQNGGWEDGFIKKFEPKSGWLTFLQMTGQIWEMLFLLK
# [19] = target: Melanocortin receptor 4 (Homo sapiens, UniProt P32245); format: functional, cell-based;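 also: Cell-based assay with luminescence read-out, confirmatory dose-response testing for agonist activity of biased ligands at MC4R; human U2OS cells with tagged receptor and beta-arrestin; potency of agonists that increase receptor coupling to beta-arrestin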
# Melanocortin receptor 4, sequence (P32245 whole entry): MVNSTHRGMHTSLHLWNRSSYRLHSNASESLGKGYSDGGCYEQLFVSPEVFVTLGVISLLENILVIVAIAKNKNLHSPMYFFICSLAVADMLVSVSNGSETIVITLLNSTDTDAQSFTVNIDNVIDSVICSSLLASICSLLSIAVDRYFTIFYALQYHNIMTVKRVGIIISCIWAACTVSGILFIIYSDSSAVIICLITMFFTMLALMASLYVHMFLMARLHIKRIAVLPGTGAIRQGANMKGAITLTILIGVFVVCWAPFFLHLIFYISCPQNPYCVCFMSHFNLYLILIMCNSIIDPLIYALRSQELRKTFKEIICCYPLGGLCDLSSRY
# [20] = system: Streptococcus sp. 'group A'; experiment: growth inhibition of control SK(-) GAS strain, dose response, counter-screen for streptokinase expression inhibitor project, luminescence, kanamycin, BacTiterGlo, confirmation (AID 1900); format: functional, organism-based
# [21] = target: T8, Short transient receptor potential channel 4 (Mus musculus, UniProt Q9QUQ5); experiment: mouse TRPC4 channel activators, dose response, cell-based, HEK293 TRPC4/mu-opioid, Fluo-4 calcium (AID 434937); format: functional
# T8 sequence (Q9QUQ5 whole entry): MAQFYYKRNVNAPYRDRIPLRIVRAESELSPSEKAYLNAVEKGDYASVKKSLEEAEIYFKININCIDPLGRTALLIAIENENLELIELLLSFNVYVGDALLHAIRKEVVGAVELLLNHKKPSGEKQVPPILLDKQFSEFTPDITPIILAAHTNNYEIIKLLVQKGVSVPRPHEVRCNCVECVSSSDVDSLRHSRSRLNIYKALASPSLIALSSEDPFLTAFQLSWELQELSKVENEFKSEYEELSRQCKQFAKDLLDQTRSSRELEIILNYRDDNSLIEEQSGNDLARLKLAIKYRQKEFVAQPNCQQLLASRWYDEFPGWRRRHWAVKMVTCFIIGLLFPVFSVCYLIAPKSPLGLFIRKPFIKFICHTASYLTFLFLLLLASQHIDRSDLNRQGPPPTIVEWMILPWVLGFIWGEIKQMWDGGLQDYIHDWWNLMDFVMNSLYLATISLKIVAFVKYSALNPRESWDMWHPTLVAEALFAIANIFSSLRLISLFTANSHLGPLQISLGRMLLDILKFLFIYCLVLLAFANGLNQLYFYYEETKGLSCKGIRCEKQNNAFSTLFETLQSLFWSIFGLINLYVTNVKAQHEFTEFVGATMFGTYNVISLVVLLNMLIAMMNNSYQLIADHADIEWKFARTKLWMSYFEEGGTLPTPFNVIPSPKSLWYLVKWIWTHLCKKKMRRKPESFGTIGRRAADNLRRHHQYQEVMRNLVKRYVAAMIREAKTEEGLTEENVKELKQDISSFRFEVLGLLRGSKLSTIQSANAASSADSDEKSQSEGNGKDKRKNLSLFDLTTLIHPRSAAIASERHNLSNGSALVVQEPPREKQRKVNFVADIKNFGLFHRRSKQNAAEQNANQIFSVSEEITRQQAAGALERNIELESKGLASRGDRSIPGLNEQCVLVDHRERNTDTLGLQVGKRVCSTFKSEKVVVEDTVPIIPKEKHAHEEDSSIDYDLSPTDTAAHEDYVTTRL
# [22] = target: Cytochrome P450 2D6 (Homo sapiens, UniProt P10635);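 also: CYP2D6 member of a cytochrome P450 panel assay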
# Cytochrome P450 2D6, sequence (P10635 whole entry): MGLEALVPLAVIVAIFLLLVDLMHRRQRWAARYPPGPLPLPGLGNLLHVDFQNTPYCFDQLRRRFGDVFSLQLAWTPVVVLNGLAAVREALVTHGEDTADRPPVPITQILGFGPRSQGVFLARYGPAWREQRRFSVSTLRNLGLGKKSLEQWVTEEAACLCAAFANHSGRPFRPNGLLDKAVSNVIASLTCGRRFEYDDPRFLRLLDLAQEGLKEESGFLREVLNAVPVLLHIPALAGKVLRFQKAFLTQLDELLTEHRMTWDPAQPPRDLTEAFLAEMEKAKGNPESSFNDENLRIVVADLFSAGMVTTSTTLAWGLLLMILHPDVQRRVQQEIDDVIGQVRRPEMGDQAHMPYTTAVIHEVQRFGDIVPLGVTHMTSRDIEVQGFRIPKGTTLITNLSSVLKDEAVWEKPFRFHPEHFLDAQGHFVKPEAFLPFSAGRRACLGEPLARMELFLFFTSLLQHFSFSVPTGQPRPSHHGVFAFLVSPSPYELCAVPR
# [23] = target: T9, Tyrosine-protein phosphatase non-receptor type 7 (Homo sapiens, UniProt P35236); format: functional
# T9 sequence (P35236 whole entry): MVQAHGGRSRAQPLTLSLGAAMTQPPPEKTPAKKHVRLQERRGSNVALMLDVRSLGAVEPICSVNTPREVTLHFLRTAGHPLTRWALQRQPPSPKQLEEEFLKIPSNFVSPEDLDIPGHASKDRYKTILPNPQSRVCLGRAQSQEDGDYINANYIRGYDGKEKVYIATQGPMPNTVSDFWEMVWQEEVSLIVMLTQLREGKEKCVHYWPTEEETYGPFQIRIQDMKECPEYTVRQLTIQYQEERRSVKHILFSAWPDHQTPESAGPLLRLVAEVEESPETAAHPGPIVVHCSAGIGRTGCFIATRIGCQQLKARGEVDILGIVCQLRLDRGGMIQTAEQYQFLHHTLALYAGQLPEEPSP
# [24] = target: T10, Tyrosine-protein phosphatase non-receptor type 22 (Homo sapiens, UniProt Q9Y2R2); format: functional
# T10 sequence (Q9Y2R2 whole entry): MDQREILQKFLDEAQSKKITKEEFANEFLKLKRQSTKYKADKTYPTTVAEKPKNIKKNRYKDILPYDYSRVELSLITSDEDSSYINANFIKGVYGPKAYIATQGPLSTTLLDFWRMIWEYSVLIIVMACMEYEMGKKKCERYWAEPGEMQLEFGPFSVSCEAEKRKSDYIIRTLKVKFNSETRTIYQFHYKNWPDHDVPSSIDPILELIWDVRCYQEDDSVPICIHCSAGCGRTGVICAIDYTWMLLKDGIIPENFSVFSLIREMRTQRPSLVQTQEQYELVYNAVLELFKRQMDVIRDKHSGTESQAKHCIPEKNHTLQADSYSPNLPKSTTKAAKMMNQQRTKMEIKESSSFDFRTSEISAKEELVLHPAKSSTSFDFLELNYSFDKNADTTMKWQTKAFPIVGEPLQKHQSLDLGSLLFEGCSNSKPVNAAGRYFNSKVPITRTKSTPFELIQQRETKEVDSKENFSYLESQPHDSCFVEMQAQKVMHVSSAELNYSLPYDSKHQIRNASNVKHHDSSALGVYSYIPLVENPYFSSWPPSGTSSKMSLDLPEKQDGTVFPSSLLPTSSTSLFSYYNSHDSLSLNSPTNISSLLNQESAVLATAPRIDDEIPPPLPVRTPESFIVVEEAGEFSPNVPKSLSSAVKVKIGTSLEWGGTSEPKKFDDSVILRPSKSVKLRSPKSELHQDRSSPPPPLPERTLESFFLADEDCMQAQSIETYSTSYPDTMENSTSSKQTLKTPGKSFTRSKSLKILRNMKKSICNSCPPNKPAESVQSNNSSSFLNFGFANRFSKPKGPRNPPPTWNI
# [25] = target: T10, Tyrosine-protein phosphatase non-receptor type 22; format: functional; remark: listed apart in the source
# [26] = target: T11, E3 ubiquitin-protein ligase XIAP (Homo sapiens, UniProt P98170); experiment: Counter Screen using XIAP-Bir3 for Chemical Antagonists of Bir1/2 domains of IAP-family anti-apoptotic proteins. [Related pubchem assays (depositor defined):AID1018, AID1449, AID1514, AID1638, AID1749, AID1750, AID488957, AID488963]
# T11 sequence (P98170 whole entry): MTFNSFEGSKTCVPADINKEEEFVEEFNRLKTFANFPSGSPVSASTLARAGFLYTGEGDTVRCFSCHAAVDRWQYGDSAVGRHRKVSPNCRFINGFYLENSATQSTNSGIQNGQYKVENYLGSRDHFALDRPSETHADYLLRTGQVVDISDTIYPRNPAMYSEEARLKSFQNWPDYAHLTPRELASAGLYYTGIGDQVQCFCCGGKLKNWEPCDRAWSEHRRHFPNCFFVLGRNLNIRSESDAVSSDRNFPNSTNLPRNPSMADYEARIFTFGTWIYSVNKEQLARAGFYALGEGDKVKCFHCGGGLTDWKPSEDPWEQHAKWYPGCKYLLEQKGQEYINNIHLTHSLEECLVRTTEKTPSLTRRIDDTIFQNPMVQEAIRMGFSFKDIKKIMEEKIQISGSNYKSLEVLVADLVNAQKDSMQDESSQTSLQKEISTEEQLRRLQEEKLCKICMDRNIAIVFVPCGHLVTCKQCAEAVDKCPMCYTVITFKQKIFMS
# [27] = target: T11, E3 ubiquitin-protein ligase XIAP; experiment: XIAP antagonists, biochemical, IAP family, fluorescence polarization (AID 1018); format: functional
# Cytochrome P450 2C19, sequence (P33261 whole entry): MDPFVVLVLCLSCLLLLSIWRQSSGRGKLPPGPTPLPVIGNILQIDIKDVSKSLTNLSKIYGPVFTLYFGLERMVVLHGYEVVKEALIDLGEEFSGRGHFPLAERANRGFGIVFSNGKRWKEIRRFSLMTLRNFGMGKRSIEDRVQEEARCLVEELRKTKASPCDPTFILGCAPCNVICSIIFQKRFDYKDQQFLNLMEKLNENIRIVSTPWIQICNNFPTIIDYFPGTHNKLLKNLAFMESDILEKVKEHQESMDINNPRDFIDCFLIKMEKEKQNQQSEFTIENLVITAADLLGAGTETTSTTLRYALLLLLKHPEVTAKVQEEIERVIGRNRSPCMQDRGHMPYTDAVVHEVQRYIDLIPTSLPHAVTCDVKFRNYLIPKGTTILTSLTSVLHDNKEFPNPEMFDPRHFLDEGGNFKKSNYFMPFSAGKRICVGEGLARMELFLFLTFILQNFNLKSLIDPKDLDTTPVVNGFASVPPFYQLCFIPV
compound,measurement,setting,value
O=C(Nc1nccs1)c1sc2cc(Cl)ccc2c1Cl,AC50,[1],0.631 µM (inconclusive)
same,EC50,[2],2.31 µM (active)
same,IC50,[3],> 66.6 µM (inactive)
same,IC50,[4],9.5 µM (active)
same,pIC50,[5],< 4.49
same,EC50,[6],17.9 µM (active)
same,AC50,[7],0.891 µM (inconclusive)
same,IC50,[8],> 66.6 µM (inactive)
same,IC50,[9],> 32 µM (inactive)
same,EC50,[10],> 32 µM (inactive)
same,EC50,[11],> 31.5 µM (inactive)
same,EC50,[12],> 32 µM (inactive)
O=C1c2cccc3cccc(c23)C(=O)N1CC1CCN(CC(O)COc2ccc3ccccc3c2)CC1 (stereo not given),EC50,[13],17.9 µM (inconclusive)
same,IC50,[14],7.69 µM (active)
same,IC50,[15],15 µM (active)
same,EC50,[16],18.5 µM (active)
same,EC50,[2],1.65 µM (active)
same,EC50,[17],18.6 µM (active)
same,IC50,[18],> 20 µM (inactive)
same,EC50,[19],6.31 µM (active)
same,EC50,[6],> 60 µM (not active)
same,EC50,[20],6.34 µM (active)
O=C(c1sc2ccccc2c1Cl)N(Cc1ccccc1)C1CCS(=O)(=O)C1 (stereo not given),EC50,[21],3.35 µM (active)
same,AC50,[22],14.1 µM (inconclusive)
O=C(CCN1C(=O)C2CC=C(Cl)CC2C1=O)NCc1ccco1 (stereo not given),IC50,[23],> 79.4 µM (inactive)
same,IC50,[24],> 79.4 µM (inactive)
same,IC50,[25],> 79.4 µM (inactive)
CCOc1ccccc1NC(=O)CN1CCC(C(=O)c2ccc(F)cc2)CC1,IC50,[14],> 20 µM (inactive)
same,IC50,[15],13.8 µM (active)
same,IC50,[18],> 20 µM (inactive)
CCOC(=O)c1ccc(NC(=O)NCCc2c[nH]cn2)cc1,EC50,[21],0.133 µM (active)
CC/N=C1\Cn2c(nc3scc(-c4ccccc4)c3c2=O)CN1CC,IC50,[26],> 100 µM (inactive)
same,IC50,[27],> 100 µM (not active)
COc1ccc(OC)c(/C=N/NC(=O)c2ccc(Cn3cc([N+](=O)[O-])cn3)o2)c1,IC50,[26],> 100 µM (inactive)
same,IC50,[27],> 100 µM (not active)
